These results are taken from paper PMC6070996 (Marine Drugs, 2018).

Read-outs that look alike come from different tables or passages of the source.

Data set [1] deals with MCF-7 breast cancer cells. The experiment in a line: MTT cytotoxicity assay. The class given is cell-based. The settings on record: 24-h exposure, 0 to 500 μg/mL. The method, then: For the test, two CPs were selected: Arg^2-containing CP962 and Tyr^2-containing CP985. MCF-7 breast cancer cells were seeded at 7.5 × 10^3 cells/100 μL in a 96-well plates and incubated at 37 °C, 5% CO2 for 24 h. The cells were then treated for a further 24 h with CP962 and CP985 (0 to 500 μg/mL). After 24 h, sterile-filtered 3-(4,5-dimethylthiazol-2-yl)-2,5-diphenyltetrazolium bromide solution (MTT; 1 mg/mL) was added to each well. After 4 h incubation at 37 °C in the dark, the MTT solution was removed and formazan crystals solubilized in DMSO. The plates were shaken for 20 min, in the dark, at room temperature and absorbance was measured at 560 nm (Synergy/HT, BIOTEK, Wnooski, VT, USA). For each CP, three independent experiments were carried out and each treatment consisted of six replicates per plate. Bar charts were used to represent the viability of MCF-7 cells treated with CP962 and CP985, compared to the control (i.e., untreated cells) that represented 100% cell viability.

The target in data set [2] is T1, trypsin from porcine pancreas (Sus scrofa, UniProt P00761).
T1 construct: purchased Sigma-Aldrich T0303; host or cells: porcine pancreas
The experiment in a line: trypsin inhibition assay. The class given is biochemical. The arrangement: key: - not active; */** small/medium activity; */** small/medium activity. As to conditions: class symbols.

Data set [3] concerns the target T2, elastase from porcine pancreas (Sus scrofa, UniProt P00772).
T2 construct: purchased Sigma-Aldrich E0258; host or cells: porcine pancreas
The experiment in a line: elastase inhibition assay. The class given is biochemical. The arrangement: key: - not active; */** small/medium activity; */** small/medium activity. The settings on record: highest concentration 45.4 μg/mL.

The target in data set [4] is α-chymotrypsin from bovine pancreas (Bos taurus, UniProt P00766). As to the kind of experiment: chymotrypsin inhibition assay. The class given is biochemical. The arrangement: key to Enzyme Inhibition Chymotrypsin (activity class): - not active; */** small/medium activity; */** small/medium activity. The settings on record: class symbols.
Another data set deals with T3, Thrombin (Bos taurus, UniProt P00735).
T3 construct: purchased Sigma-Aldrich T4648
The experiment in a line: thrombin inhibition assay. Format: biochemical. The arrangement: key: - not active; */** small/medium activity; */** small/medium activity. The settings on record: highest concentration 45.4 μg/mL.

The target of data set [5] is T4, protein phosphatase 1 (PP1) (Oryctolagus cuniculus, UniProt P62139).
T4 construct: purchased England Biolabs, Hitchin, UK (New England Biolabs) 754S
The experiment in a line: protein phosphatase 1 inhibition assay. The settings on record: highest concentration 45.4 μg/mL. Format: biochemical. Also on record: key: - not active; */** small/medium activity; */** small/medium activity.

The target of data set [6] is human leukocyte elastase (HLE). Also on record: method as in PMID 18924217. As to conditions: activity of extracts; read-out: Enzyme Inhibition HLE IC50; cited from earlier work.
The next data set concerns Chymotrypsin. The settings on record: cited from earlier work.

T4 sequence (P62139 whole entry): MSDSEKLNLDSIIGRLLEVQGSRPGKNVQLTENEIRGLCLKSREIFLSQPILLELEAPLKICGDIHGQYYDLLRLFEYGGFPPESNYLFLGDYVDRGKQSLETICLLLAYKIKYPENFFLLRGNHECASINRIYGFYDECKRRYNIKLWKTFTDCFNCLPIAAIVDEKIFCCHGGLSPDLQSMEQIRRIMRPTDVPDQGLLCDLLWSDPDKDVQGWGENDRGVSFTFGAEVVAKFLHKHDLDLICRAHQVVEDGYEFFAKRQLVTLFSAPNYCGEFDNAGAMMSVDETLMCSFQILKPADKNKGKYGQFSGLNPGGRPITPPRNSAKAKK
T1 sequence (P00761 9-231): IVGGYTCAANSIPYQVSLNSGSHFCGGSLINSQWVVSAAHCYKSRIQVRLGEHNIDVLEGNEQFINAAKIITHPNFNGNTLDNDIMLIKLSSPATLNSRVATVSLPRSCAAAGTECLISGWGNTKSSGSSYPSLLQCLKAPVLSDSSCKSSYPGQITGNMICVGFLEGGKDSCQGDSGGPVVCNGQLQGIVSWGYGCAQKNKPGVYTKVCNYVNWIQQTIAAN
T2 sequence (P00772 27-266): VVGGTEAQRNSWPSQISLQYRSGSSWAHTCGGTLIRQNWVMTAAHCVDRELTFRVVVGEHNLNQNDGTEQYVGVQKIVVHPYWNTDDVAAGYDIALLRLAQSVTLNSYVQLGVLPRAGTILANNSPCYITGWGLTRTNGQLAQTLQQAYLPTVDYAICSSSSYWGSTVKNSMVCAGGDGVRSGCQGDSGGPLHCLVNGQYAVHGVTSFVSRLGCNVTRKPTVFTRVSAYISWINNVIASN

On to `CCCC(=O)NC(CC(=O)O)C(=O)NC1C(=O)NC(CCCNC(=N)N)C(=O)NC2CCC(O)N(C2=O)C(Cc2ccccc2)C(=O)N(C)C(Cc2ccccc2)C(=O)NC(C(C)C)C(=O)OC1C` (centres unmarked) [CP 962, [Thr+Arg+Ahp+Phe+MePhe+Val]Asp+BA], for which the “cytotoxic effects on MCF-7 cells (MTT)” value in data set [1] is “no cytotoxic effects”. The “Enzyme Inhibition Trypsin (activity class)” value (shortened to “Enzyme Inhibition Trypsin”) in data set [2] is “**”. Besides, the “Enzyme Inhibition Elastase (activity class)” value (shortened to “Enzyme Inhibition Elastase”) in data set [3] is “-”. In addition, in data set [4], the “Enzyme Inhibition Chymotrypsin (activity class)” value (“Enzyme Inhibition Chymotrypsin” below) is listed as “-”. In addition, at Thrombin, the “Enzyme Inhibition Thrombin (activity class)” value (from here on “Enzyme Inhibition Thrombin”) is “-”. In data set [5], the “Enzyme Inhibition Protein Phosphatase 1 (activity class)” value is “-”.

“[Hmp+Leu+Ahp+Ile+MeTyr+Val]Cit+Ac [Insulapeptolide A]”: the IC50 (in general, the midpoint of a concentration-inhibition curve) in data set [6] was 140 nM.

`CC[C@H](C)[C@H]1C(=O)N(C)[C@@H](Cc2ccc(OC)cc2)C(=O)N[C@@H](C(C)C)C(=O)O[C@@H]2[C@H](C)CN(C(=O)[C@H](CCCNC(N)=O)NC(C)=O)[C@@H]2C(=O)N[C@@H](CC(C)C)C(=O)N[C@H]2CC[C@@H](O)N1C2=O` [Insulapeptolide C, [Hmp+Leu+Ahp+Ile+diMeTyr+Val]Cit+Ac]: the IC50 in data set [6] was 90 nM.

For the compound “[Thr+Hph+Ahp+Thr+MePhe+Val]Ser+Pro+BA [Insulapeptolide G]”, the IC50 in data set [6] is 3500 nM.

For the compound `CCCCCC(=O)N[C@@H](CC(=O)O)C(=O)N[C@@H]1C(=O)N[C@@H](CCCNC(=N)N)C(=O)N[C@H]2CC[C@@H](O)N(C2=O)[C@@H](Cc2ccccc2)C(=O)N(C)[C@@H](Cc2ccc(O)cc2)C(=O)N[C@@H](C(C)C)C(=O)O[C@@H]1C` [CP 1006, [Thr+Arg+Ahp+Phe+MeTyr+Val]Asp+HA], the “Enzyme Inhibition Trypsin” value in data set [2] is given as “**”. Besides, in data set [3], the “Enzyme Inhibition Elastase” value is reported as “-”. For the same compound, in data set [4], the “Enzyme Inhibition Chymotrypsin” value is recorded as “*”. Also, on Thrombin, the “Enzyme Inhibition Thrombin” value is on record as “-”. Moreover, in data set [5], the “Enzyme Inhibition Protein Phosphatase 1 (activity class)” value is “-”.

With `CCCCCC(=O)N[C@@H](CC(=O)O)C(=O)N[C@@H]1C(=O)N[C@@H](Cc2ccc(O)cc2)C(=O)N[C@H]2CC[C@@H](O)N(C2=O)[C@@H](Cc2ccccc2)C(=O)N(C)[C@@H](CCc2ccc(O)cc2)C(=O)N[C@@H](C(C)C)C(=O)O[C@@H]1C` [CP 1027, [Thr+Tyr+Ahp+Phe+MeHty+Val]Asp+HA], in data set [2], the “Enzyme Inhibition Trypsin” value is “-”. Further, in data set [3], the “Enzyme Inhibition Elastase” value is “-”. Also, on Thrombin, the “Enzyme Inhibition Thrombin” value was “-”. For the same compound, the “Enzyme Inhibition Protein Phosphatase 1 (activity class)” value in data set [5] is on record as “-”.

As for `CC[C@H](C)[C@@H]1NC(=O)[C@H](Cc2ccc(O)cc2)N(C)C(=O)[C@H](Cc2ccccc2)N2C(=O)[C@H](CC[C@H]2O)NC(=O)[C@H](Cc2ccccc2)NC(=O)[C@@H](NC(=O)[C@@H](O)COP(=O)(O)O)[C@@H](C)OC1=O` [micropeptin T20], the IC50 in the data set with Chymotrypsin (read-out: chymotrypsin IC50) is 2.5 nM.

On to `CCCCCCCC(=O)N[C@@H](CC(=O)O)C(=O)N[C@@H]1C(=O)N[C@@H](CCCNC(=N)N)C(=O)N[C@H]2CC[C@@H](O)N(C2=O)[C@@H](Cc2ccccc2)C(=O)N(C)[C@@H](Cc2ccccc2)C(=O)N[C@@H](C(C)C)C(=O)O[C@@H]1C` [CP 1018, [Thr+Arg+Ahp+Phe+MePhe+Val]Asp+OA], for which, in data set [3], the “Enzyme Inhibition Elastase” value is recorded as “-”. Moreover, the “Enzyme Inhibition Chymotrypsin” value in data set [4] is on record as “-”. Moreover, the “Enzyme Inhibition Thrombin” value at Thrombin was “-”. In addition, in data set [5], the “Enzyme Inhibition Protein Phosphatase 1 (activity class)” value is reported as “-”.

Turning to “[Thr+Hph+Ahp+Thr+MeTyr+Ile]Ser+Pro+BA [Insulapeptolide E]”, in data set [6], the IC50 was 3200 nM.

Consider `CCCC(=O)N[C@@H](CC(=O)O)C(=O)N[C@@H]1C(=O)N[C@@H](Cc2ccc(O)cc2)C(=O)N[C@H]2CC[C@@H](O)N(C2=O)[C@@H](Cc2ccccc2)C(=O)N(C)[C@@H](Cc2ccccc2)C(=O)N[C@@H](C(C)C)C(=O)O[C@@H]1C` [CP 969, [Thr+Tyr+Ahp+Phe+MePhe+Val]Asp+BA], for which the “Enzyme Inhibition Trypsin” value in data set [2] was “-”. The “Enzyme Inhibition Elastase” value in data set [3] was “-”. Also, the “Enzyme Inhibition Chymotrypsin” value in data set [4] is “**”. In addition, the “Enzyme Inhibition Thrombin” value at Thrombin was “-”. Also, in data set [5], the “Enzyme Inhibition Protein Phosphatase 1 (activity class)” value is on record as “-”.

With `CC(=O)N[C@@H](CCC(N)=O)C(=O)N[C@@H]1C(=O)N[C@@H](CC(C)C)C(=O)N[C@H]2CC[C@@H](O)N(C2=O)[C@@H](Cc2ccccc2)C(=O)N(C)[C@@H](Cc2ccc(O)cc2)C(=O)N[C@@H](C(C)C)C(=O)O[C@@H]1C` [Nostopeptin BN920, [Thr+Leu+Ahp+Phe+MeTyr+Val]Gln+Ac], in the data set on Chymotrypsin (read-out: Enzyme Inhibition Chymotrypsin IC50), the IC50 was 110 nM.

As for `CCCC(=O)N[C@@H](CC(=O)O)C(=O)N[C@@H]1C(=O)N[C@@H](Cc2ccc(O)cc2)C(=O)N[C@H]2CC[C@@H](O)N(C2=O)[C@@H](Cc2ccccc2)C(=O)N(C)[C@@H](CCc2ccc(O)cc2)C(=O)N[C@@H](C(C)C)C(=O)O[C@@H]1C` [CP 999, [Thr+Tyr+Ahp+Phe+MeHty+Val]Asp+BA], the “Enzyme Inhibition Trypsin” value in data set [2] was “-”. Further, in data set [4], the “Enzyme Inhibition Chymotrypsin” value is “**”. For the same compound, the “Enzyme Inhibition Thrombin” value at Thrombin is given as “-”. The “Enzyme Inhibition Protein Phosphatase 1 (activity class)” value in data set [5] is given as “-”.

“[Thr+Hph+Ahp+Thr+MeTyr+Ile]Ser+Pro+BA [Insulapeptolide H]”: the 50% inhibitory concentration (IC50) in data set [6] was 2700 nM.

For the compound `CCCC(=O)N[C@@H](CC(=O)O)C(=O)N[C@@H]1C(=O)N[C@@H](CCCNC(=N)N)C(=O)N[C@H]2CC[C@@H](O)N(C2=O)[C@@H](Cc2ccccc2)C(=O)N(C)[C@@H](Cc2ccc(O)cc2)C(=O)N[C@@H](C(C)C)C(=O)O[C@@H]1C` [CP 978, [Thr+Arg+Ahp+Phe+MeTyr+Val]Asp+BA], in data set [3], the “Enzyme Inhibition Elastase” value is “-”. The “Enzyme Inhibition Thrombin” value at Thrombin is listed as “-”. Besides, in data set [5], the “Enzyme Inhibition Protein Phosphatase 1 (activity class)” value was “-”.

In the case of “[Thr+Hph+Ahp+Thr+MeTyr+Val]Ser+Pro+BA [Insulapeptolide F]”, in data set [6], the IC50 is 1600 nM.

Take `CCCCCC(=O)N[C@@H](CC(=O)O)C(=O)N[C@@H]1C(=O)N[C@@H](CCCNC(=N)N)C(=O)N[C@H]2CC[C@@H](O)N(C2=O)[C@@H](Cc2ccccc2)C(=O)N(C)[C@@H](Cc2ccccc2)C(=O)N[C@@H](C(C)C)C(=O)O[C@@H]1C` [CP 990, [Thr+Arg+Ahp+Phe+MePhe+Val]Asp+HA]: the “Enzyme Inhibition Trypsin” value in data set [2] is recorded as “**”. For the same compound, the “Enzyme Inhibition Elastase” value in data set [3] is given as “-”. Further, the “Enzyme Inhibition Chymotrypsin” value in data set [4] is on record as “-”. Further, the “Enzyme Inhibition Thrombin” value at Thrombin was “-”. Further, the “Enzyme Inhibition Protein Phosphatase 1 (activity class)” value in data set [5] is given as “-”.

As to `CCCCCCCC(=O)N[C@@H](CC(=O)O)C(=O)N[C@@H]1C(=O)N[C@@H](CCCNC(=N)N)C(=O)N[C@H]2CC[C@@H](O)N(C2=O)[C@@H](Cc2ccccc2)C(=O)N(C)[C@@H](CCc2ccc(O)cc2)C(=O)N[C@@H](C(C)C)C(=O)O[C@@H]1C` [CP 1048, [Thr+Arg+Ahp+Phe+MeHty+Val]Asp+OA], in data set [2], the “Enzyme Inhibition Trypsin” value is given as “**”. Besides, the “Enzyme Inhibition Elastase” value in data set [3] was “-”. Moreover, the “Enzyme Inhibition Chymotrypsin” value in data set [4] was “*”. Moreover, the “Enzyme Inhibition Thrombin” value at Thrombin was “-”. Moreover, the “Enzyme Inhibition Protein Phosphatase 1 (activity class)” value in data set [5] was “-”.

In the case of `CCCCCC(=O)N[C@@H](CC(=O)O)C(=O)N[C@@H]1C(=O)N[C@@H](Cc2ccc(O)cc2)C(=O)N[C@H]2CC[C@@H](O)N(C2=O)[C@@H](Cc2ccccc2)C(=O)N(C)[C@@H](Cc2ccc(O)cc2)C(=O)N[C@@H](C(C)C)C(=O)O[C@@H]1C` [CP 1013, [Thr+Tyr+Ahp+Phe+MeTyr+Val]Asp+HA], the “Enzyme Inhibition Trypsin” value in data set [2] is reported as “-”. In addition, in data set [3], the “Enzyme Inhibition Elastase” value is given as “-”. For the same compound, the “Enzyme Inhibition Chymotrypsin” value in data set [4] was “**”. Besides, the “Enzyme Inhibition Thrombin” value at Thrombin was “-”. Besides, the “Enzyme Inhibition Protein Phosphatase 1 (activity class)” value in data set [5] is “-”.

As for “[Hmp+Leu+Ahp+Leu+MeTyr+Ile]Cit+Ac [Insulapeptolide B]”, the IC50 in data set [6] is 100 nM.

In the case of “[Hmp+Leu+Ahp+Ile+diMeTyr+Ile]Cit+Ac [Insulapeptolide D]”, the IC50 in data set [6] is 85 nM.

For `CCCC(=O)N[C@@H](CC(=O)O)C(=O)N[C@@H]1C(=O)N[C@@H](CCCNC(=N)N)C(=O)N[C@H]2CC[C@@H](O)N(C2=O)[C@@H](Cc2ccccc2)C(=O)N(C)[C@@H](CCc2ccc(O)cc2)C(=O)N[C@@H](C(C)C)C(=O)O[C@@H]1C` [CP 992, [Thr+Arg+Ahp+Phe+MeHty+Val]Asp+BA], the “Enzyme Inhibition Elastase” value in data set [3] is given as “-”. Besides, on Thrombin, the “Enzyme Inhibition Thrombin” value is given as “-”. Besides, the “Enzyme Inhibition Protein Phosphatase 1 (activity class)” value in data set [5] is given as “-”.
